Results taken from patent publication US20070249603A1, “3-Arylsulfonyl-Quinolines as 5-Ht6 Receptor Antagonists for the Treatment of Cns Disorders” (priority 2004, published 2007).
Structures can show the parent of a compound that is named as a salt.

Molecular target: T1, human cloned 5-HT6 receptors (Homo sapiens, UniProt P50406)
T1 construct: expressed in transfected cells; host or cells: HeLa cells expressing cloned 5-HT6 receptor (membranes)
Test: Cyclase assay (cAMP production in membranes of HeLa 5HT6 cells, antagonism of 5-HT)
Type: biochemical
Conditions: antagonist potency, 5-HT at 4×EC50, functional Ki by Cheng-Prusoff from IC50, read-out: fpKi (negative log10 of the molar functional Ki) (converted)
Procedure: Compounds of the invention may be tested for in vitro biological activity in accordance with the following cyclase assay:
0.5 μl of test compound in 100% dimethylsulfoxide (DMSO) was added to a white, solid 384 well assay plate (for dose response measurements the top of the concentration range is 7.5 μM final). […]
cAMP production was then measured using the DiscoveRx™ HitHunter™ chemiluminescence cAMP assay kit (DiscoveRx Corporation, 42501 Albrae Street, Fremont, Calif. 94538; Product Code: 90-0004L) or any other suitable cAMP measurement assay.
IC50 values were estimated from arbitrary designated unit (ADU) measurements from a Perkin Elmer Viewlux instrument using a four parameter logistic curve fit within EXCEL (Bowen, W. P. and Jerman, J. C. (1995), Nonlinear regression using spreadsheets. Trends in Pharmacol. Sci., 16, 413-417). Functional Ki values were calculated using the method of Cheng, Y. C. and Prussof, W. H. (Biochemical Pharmacol (1973) 22 3099-3108). pI50 and fpKi are the negative log10 of the molar IC50 and functional Ki respectively.

T1 sequence (P50406 whole entry): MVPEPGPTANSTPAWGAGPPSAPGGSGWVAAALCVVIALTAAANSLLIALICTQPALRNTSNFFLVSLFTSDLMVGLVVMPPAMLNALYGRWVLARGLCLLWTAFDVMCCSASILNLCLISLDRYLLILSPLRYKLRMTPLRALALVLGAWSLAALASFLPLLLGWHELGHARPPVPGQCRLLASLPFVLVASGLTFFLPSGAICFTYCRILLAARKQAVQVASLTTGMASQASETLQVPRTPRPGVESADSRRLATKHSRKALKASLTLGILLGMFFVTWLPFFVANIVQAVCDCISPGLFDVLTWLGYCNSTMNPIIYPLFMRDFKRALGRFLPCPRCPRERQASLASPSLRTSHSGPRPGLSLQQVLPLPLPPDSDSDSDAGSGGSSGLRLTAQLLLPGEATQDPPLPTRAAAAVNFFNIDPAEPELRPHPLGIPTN

Ki: 0.158 µM
Compound: CN(C)C1CCN(c2ccc(I)c3cc(S(=O)(=O)c4ccccc4)cnc23)CC1 [Example 13, 1-[5-Iodo-3-(phenylsulfonyl)-8-quinolinyl]-N,N-dimethyl-4-piperidinamine hydrochloride]
